From patent US7662971B2, “Inhibitors of fatty acid amide hydrolase” (The Scripps Research Institute, priority 2002, dated 2010)

Legend:
mice [1] = test: hot plate test (thermal pain); assay type: in vivo
Protocol: (§1) FIG. 12 illustrates a bar graph showing the reduced thermal pain responses 60 minutes following the injection of OL-135 (10 mg/kg, i.p.). This test is the hot plate test and there is no effect with the vehicle and there is some delay after administration of the OL-135. [p<0.01; N=12 mice per group; results shown as means ±S.E.]
(§2) The mice received an i.p. injection of vehicle or SR 141716A (3 mg/kg); 10 minutes later all subjects were given OL-135 (10 mg/kg, i.p.) and then evaluated in the hot plate test one hour after the second injection. [p<0.001 for OL-135-treated mice that were pretreated with vehicle versus either their pre-injection baseline latencies or OL-135 treated mice that were pretreated with SR 141716A. Results are shown as means ±S. E. N=6 mice/group.]

mice [2] = test: tail withdrawal / tail immersion test (thermal pain); assay type: in vivo
Protocol: as §1, with “FIG. 11” for “FIG. 12”, “the tail withdrawal” for “the hot plate”, “vehicle while” for “vehicle and”, “is marked” for “is some”, “OL-135. [p<0.001;” for “OL-135. [p<0.01;”
as §2, with “tail immersion” for “hot plate”, “(p<0.001” for “[p<0.001”, “141716A.)” for “141716A.”, “mice/group.” for “mice/group.]”

FAAH = target: T1, FAAH (Rattus norvegicus, UniProt P97612); test: FAAH enzyme inhibition, breakdown of 14C-oleamide to oleic acid; assay type: biochemical; details: 5-(2-pyridyl)-substituted oxazole head group, FIG. 4
T1 construct: using a solubilized liver plasma membrane extract containing FAAH; from tissue; host or cells: liver plasma membrane extract (solubilized)
T1 sequence (P97612 1-579): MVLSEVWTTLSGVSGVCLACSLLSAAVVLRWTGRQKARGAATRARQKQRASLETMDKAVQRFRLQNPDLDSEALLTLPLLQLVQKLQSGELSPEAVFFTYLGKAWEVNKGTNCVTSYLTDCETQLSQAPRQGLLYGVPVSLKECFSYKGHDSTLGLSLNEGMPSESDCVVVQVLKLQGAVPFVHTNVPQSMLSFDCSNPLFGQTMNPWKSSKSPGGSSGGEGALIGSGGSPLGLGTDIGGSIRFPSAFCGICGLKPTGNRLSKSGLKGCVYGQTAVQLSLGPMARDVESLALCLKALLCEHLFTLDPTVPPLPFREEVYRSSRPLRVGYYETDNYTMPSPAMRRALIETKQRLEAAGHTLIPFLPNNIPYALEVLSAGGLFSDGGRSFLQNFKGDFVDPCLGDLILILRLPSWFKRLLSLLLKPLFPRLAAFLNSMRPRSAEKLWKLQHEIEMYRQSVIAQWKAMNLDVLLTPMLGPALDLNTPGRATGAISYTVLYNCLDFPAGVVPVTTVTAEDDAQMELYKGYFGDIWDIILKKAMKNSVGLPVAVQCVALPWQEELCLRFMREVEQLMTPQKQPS
Protocol: All enzyme assays were performed at 20-23° C. using a solubilized liver plasma membrane extract containing FAAH in a reaction buffer of 125 mM Tris, 1 mM EDTA, 0.2% glycerol, 0.02% Triton X-100, 0.4 mM HEPES, pH 9.0 buffer (M. P. Patricelli, et al., (1998) Bioorg. Med. Chem. Lett. 8, 613-618; and J. E. Patterson, et al., (1996) J. Am. Chem. Soc. 118, 5938-5945). The initial rates of hydrolysis were monitored by following the breakdown of ^14C-oleamide to oleic acid as previously described (B. F. Cravatt, et al., (1995) Science 268, 1506-1509; and M. P. Patricelli, et al., (1998) Bioorg. Med. Chem. Lett. 8, 613-618). The inhibition was reversible, non time-dependent and linear least squares fits were used for all reaction progress curves and R^2 values were consistently >0.97. IC50 values were determined from the inhibition observed at 3-5 different inhibitor concentrations (from three or more trials at each inhibitor concentration) using the formula IC50=[I]/[(K0/Ki)−1], where K0 is the control reaction rate without inhibitor and Ki is the rate with inhibitor at concentration [I] (K. Conde-Frieboes, et al., (1996) J. Am. Chem. Soc. 118, 5519-5525). Ki values were determined by the Dixon method (x-intercepts of weighted linear fits of [I] versus 1/rate plots at constant substrate concentration, which were converted to Ki values using the formula Ki=−xint/[1+[S]/Km]).

[3] = SR 141716A 3 mg/kg i.p. 10 minutes before OL-135 10 mg/kg i.p., one hour after second injection

melting point [°C]	Compound	other results
56 to 57	CCCCCCCCC(=O)c1ncc(-c2ccccn2)o1 [Compound 188, 1-(5-(Pyridin-2-yl)oxazol-2-yl)nonan-1-one]	
56	CCCCCCCC(=O)c1ncc(-c2ccccn2)o1 [Compound 189, 1-(5-(Pyridin-2-yl)oxazol-2-yl)octan-1-one]	
79 to 80	CCCCCCCCCCCCCC(=O)c1ncc(-c2ccccn2)o1 [Compound 184, 1-(5-(Pyridin-2-yl)oxazol-2-yl)tetradecan-1-one]	
56 to 57	CCCCCCCCCC(=O)c1ncc(-c2ccccn2)o1 [Compound 187, 1-(5-(Pyridin-2-yl)oxazol-2-yl)decan-1-one]	
55 to 57	C=CCCCCCCCC(=O)c1ncc(-c2ccccn2)o1 [Compound 203, 1-Oxo-1-[5-(2-pyridyl)oxazol-2-yl]-9-decene]	
54 to 55	CCCC(=O)c1ncc(-c2ccccn2)o1 [Compound 193, 1-[5-(Pyridin-2-yl)oxazol-2-yl]butan-1-one]	
49 to 50.5	CCCCCC(=O)c1ncc(-c2ccccn2)o1 [Compound 191, 1-(5-(Pyridin-2-yl)oxazol-2-yl)hexan-1-one]	
52	CCCCCCC(=O)c1ncc(-c2ccccn2)o1 [Compound 190, 1-(5-(Pyridin-2-yl)oxazol-2-yl)heptan-1-one]	
78 to 80	CCCCCCCCCCCCCCCC(=O)c1ncc(-c2ccccn2)o1 [Compound 183, 1-(5-(Pyridin-2-yl)oxazol-2-yl)hexadecan-1-one]	
36 to 37	CCCCC(=O)c1ncc(-c2ccccn2)o1 [Compound 192, 1-(5-(pyridin-2-yl)oxazol-2-yl)pentan-1-one]	
64.5 to 65.5	C#CCCCCCCCC(=O)c1ncc(-c2ccccn2)o1 [Compound 204, 1-Oxo-1-[5-(2-pyridyl)oxazol-2-yl]-9-decyne]	
73 to 74	CCCCCCCCCCCC(=O)c1ncc(-c2ccccn2)o1 [Compound 185, 1-(5-(Pyridin-2-yl)oxazol-2-yl)dodecan-1-one]	difference in Ki between compounds 185 and 200 (FAAH): factor of two

Further lines, the molecule ahead of its results:

Compound	melting point [°C]	other results
Cc1c(C(=O)NN2CCCCC2)nn(-c2ccc(Cl)cc2Cl)c1-c1ccc(Cl)cc1 [SR 141716A, reference compound]		effect on OL-135 analgesia, hot plate test (mice [1]; [3]): blocking the analgesic effects of OL-135; effect on OL-135 analgesia, tail immersion test (mice [2]; [3]): blocking the analgesic effects of OL-135
CCCCCCCCC#CCCCCCCCC(=O)c1ncc(-c2ccccn2)o1 [Compound 205, 1-Oxo-1-[5-(2-pyridyl)oxazol-2-yl]-9-octadecyne]	41	
O=C(CCCCCCCc1ccccc1)c1ncc(-c2ccccn2)o1 [Compound 201, 1-Oxo-1-[5-(2-pyridyl)oxazol-2-yl]-8-phenyloctane]	72 to 73	
CCCCCCCCCCCCCCCCCC(=O)c1ncc(-c2ccccn2)o1 [Compound 182, 1-(5-(Pyridin-2-yl)oxazol-2-yl)octadecan-1-one]	86 to 87	
O=C(CCCCCCc1ccccc1)c1ncc(-c2ccccn2)o1 [OL-135]		thermal pain response, hot plate test (mice [1]; 10 mg/kg, i.p., 60 minutes following injection, p<0.01): some delay; thermal pain response, tail withdrawal test (mice [2]; 10 mg/kg, i.p., 60 minutes following injection, p<0.001): marked delay
O=C(CCCCc1ccccc1)c1ncc(-c2ccccn2)o1 [Compound 198, 1-Oxo-1-[5-(2-pyridyl)oxazol-2-yl]-5-phenylpentane]	49 to 51	
O=C(CCCCCc1ccccc1)c1ncc(-c2ccccn2)o1 [Compound 199, 1-Oxo-1-[5-(2-pyridyl)oxazol-2-yl]-6-phenylhexane]	43.5 to 45.5	
O=C(CCCCCCc1ccccc1)c1ncc(-c2ccccn2)o1 [Compound 200, 1-Oxo-1-[5-(2-pyridyl)oxazol-2-yl]-7-phenylheptane]		difference in Ki between compounds 185 and 200 (FAAH): factor of two
CCC(=O)c1ncc(-c2ccccn2)o1 [Compound 194, 1-[5-(Pyridin-2-yl)oxazol-2-yl]propan-1-one]	65 to 67	
